Experiments:
U87 = assay: MTT cell viability assay, U87 cells; type: cell-based; conditions: Homo sapiens, U-87 MG, 48 h, n = 3
Method: (§1) MGC-803, SGC-7901, U87 and SMMC-7721 cell lines were cultured in DMEM supplemented with 10% foetal bovine serum, 100 IU/mL penicillin/streptomycin. The cells were incubated in an atmosphere containing 5% CO2 at 37 °C.
(§2) MGC-803, SGC-7901, U87 and SMMC-7721 cells were plated in 96-well plate at 7000 per well. Cells were incubated with the different concentrations of the compounds for 48 h. Subsequently, MTT (0.5 mg/mL) were used to test the cell viability, then 150 μL DMSO was added to each well after cells were incubated for 4 h and the absorbance was measured at 492 nm.

SMMC-7721 = assay: MTT cell viability assay, SMMC-7721 cells; type: cell-based; conditions: Homo sapiens, 48 h, n = 3
Method: as §1, §2

SGC-7901 = assay: MTT cell viability assay, SGC-7901 cells; type: cell-based, human; conditions: Homo sapiens, SGC-7901, 48 h, n = 3
Method: as §1, §2

MGC-803 = assay: MTT cell viability assay, MGC-803 cells; type: cell-based; conditions: Homo sapiens, MGC-803, 48 h, n = 3
Method: as §1, §2

L02 = assay: MTT cell viability assay, L02 cells; type: cell-based; conditions: Homo sapiens, n = 3
[1] = tested on: SGC-7901, MGC-803, SMMC-7721, U-87 cell lines; assay: MTT anticancer activity, summary in words over the cell line panel; type: cell-based; conditions: MTT assay
Method: as §2
Compounds 1–24 were detected for anticancer activities against SGC-7901, MGC-803, SMMC-7721, U-87 cell lines in vitro by the MTT assay, and ADM was used as the positive control. From Table 1, when the phenolic hydroxyls of naphthoquinone moiety were converted to ether, the activity was missing. […] So colony formation assay of this compound (Figure 4) was used to investigate the effect of it on cell proliferation in SGC-7901 cells. The experiment examined the ability for producing colonies after the cells were treated with the cell death agents[35]^,[36].

IC50 (U87) | IC50 (SMMC-7721) | IC50 (SGC-7901) | IC50 (MGC-803) | Compound | IC50 (L02) | anticancer activity (in words) [1]
3.75 ± 0.77 µM | 9.5 ± 0.8 µM | 2.25 ± 1.5 µM | 8.4 ± 3.1 µM | CC(C)=CCC(OC(=O)CCC(=O)Nc1ccc(F)c(C(F)(F)F)c1)C1=CC(=O)c2c(O)ccc(O)c2C1=O (stereo not drawn) [Compound 11, 1-(5,8-dihydroxy-1,4-dioxo-1,4-dihydronaphthalen-2-yl)-4-methylpent-3-en-1-yl-4-((4-fluoro-3-(trifluoromethyl)phenyl)amino)-4-oxobutanoate] | 4 ± 0.1 µM | good activity
3.46 ± 0.31 µM | 16.9 ± 2.2 µM | 7.8 ± 3.7 µM | 10.2 ± 2.9 µM | CC(C)=CCC(OC(=O)CCC(=O)Nc1ccc(OC(F)(F)F)cc1)C1=CC(=O)c2c(O)ccc(O)c2C1=O (stereo not drawn) [Compound 13, 1-(5,8-dihydroxy-1,4-dioxo-1,4-dihydronaphthalen-2-yl)-4-methylpent-3-en-1-yl-4-oxo-4-((4-(trifluoromethoxy)phenyl)amino)butanoate] | 15.8 ± 1.1 µM | good activity
4.45 ± 0.66 µM | 12.3 ± 0.1 µM | 8.6 ± 2.5 µM | 3.1 ± 0.1 µM | CC(C)=CCC(OC(=O)CCC(=O)N1CCCc2ccccc21)C1=CC(=O)c2c(O)ccc(O)c2C1=O (stereo not drawn) [Compound 9, 1-(5,8-dihydroxy-1,4-dioxo-1,4-dihydronaphthalen-2-yl)-4-methylpent-3-en-1-yl-4-(3,4-dihydroquinolin-1(2H)-yl)-4-oxobutanoate] | 12.1 ± 0.8 µM | good activity

— PMC7144209, “Design, synthesis and anticancer activity of naphthoquinone derivatives” (Journal of Enzyme Inhibition and Medicinal Chemistry, 2020)
